Earlier results, collected in patent US10822301B2, “3-carbon substituted 4-aminocyclopent-1-ene-1-carboxylic acid compounds as inhibitors of gamma-aminobutyric acid (GABA) aminotransferase” (Northwestern University, priority 2018, dated 2020).

Key:
[1] = tested on: epilepsy patients; conditions: long-term administration, share of epilepsy patients
[2] = tested on: cocaine addiction in humans; conditions: 9-week double-blind trial

## C=CC(N)CCC(=O)O (centres unmarked) [vigabatrin]
[1]
  permanent vision loss (damage of the retinal nerve fiber layer): 25-40%
[2]
  patients achieving abstinence: up to 28%
